Experimental data taken from patent US20230017045A1, “PYRIDINE AND PYRIMIDINE CARBOXYLATE HERBICIDES AND METHODS OF USE THEREOF” (Dow AgroSciences LLC, priority 2017, published 2023).

tested on: test plant species; assay: Post-emergent herbicidal activity test (greenhouse, foliar spray, visual growth reduction); format: in vivo; details: post-emergence, 336 h, ALOMY: blackgrass (Alopecurus myosuroides), 140 g ai/ha, 14 days after application, read-out: Visual Growth Reduction (%) 14 Days After Application, ALOMY
How it was run: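 Greenhouse plants at first–second true leaf stage sprayed overhead at 187 L/ha with compound in acetone/water/isopropanol/DMSO/crop oil/X-77 carrier; controls received solvent blank. Injury rated visually after 14 d on a 0–100% scale versus untreated and control plants, converted to growth reduction.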

Structure (SMILES) | pest or weed control at 140 g/ha [%]
COC(=O)c1nc(-c2ccc(C(F)(F)F)cc2Cl)ccc1C [F53, Methyl 6-(2-chloro-4-(trifluoromethyl)phenyl)-3-methylpicolinate] | 60 to 74
COC(=O)c1nc(-c2ccc(OC(C)(C)C)cc2Cl)ccc1Cl [F36, Methyl 6-(4-(tert-butoxy)-2-chlorophenyl)-3-chloropicolinate] | 0 to 29

same assay, conditions: post-emergence, 336 h, AMARE: redroot pigweed (Amaranthus retroflexus), 140 g ai/ha, 14 days after application, read-out: Visual Growth Reduction (%) 14 Days After Application, AMARE

Structure (SMILES) | pest or weed control at 140 g/ha [%]
COC(=O)c1nc(-c2ccc(C(F)(F)F)cc2Cl)ccc1C [F53, Methyl 6-(2-chloro-4-(trifluoromethyl)phenyl)-3-methylpicolinate] | 95 to 100
COC(=O)c1nc(-c2ccc(OC(C)(C)C)cc2Cl)ccc1Cl [F36, Methyl 6-(4-(tert-butoxy)-2-chlorophenyl)-3-chloropicolinate] | 0 to 29

same assay, conditions: post-emergence, 336 h, AVEFA: wild oat (Avena fatua), 140 g ai/ha, 14 days after application, read-out: Visual Growth Reduction (%) 14 Days After Application, AVEFA

Structure (SMILES) | pest or weed control at 140 g/ha [%]
COC(=O)c1nc(-c2ccc(C(F)(F)F)cc2Cl)ccc1C [F53, Methyl 6-(2-chloro-4-(trifluoromethyl)phenyl)-3-methylpicolinate] | 75 to 84
COC(=O)c1nc(-c2ccc(OC(C)(C)C)cc2Cl)ccc1Cl [F36, Methyl 6-(4-(tert-butoxy)-2-chlorophenyl)-3-chloropicolinate] | 0 to 29

same assay, conditions: post-emergence, 336 h, CHEAL: lambsquarters (Chenopodium album), 140 g ai/ha, 14 days after application, read-out: Visual Growth Reduction (%) 14 Days After Application, CHEAL

Structure (SMILES) | pest or weed control at 140 g/ha [%]
COC(=O)c1nc(-c2ccc(C(F)(F)F)cc2Cl)ccc1C [F53, Methyl 6-(2-chloro-4-(trifluoromethyl)phenyl)-3-methylpicolinate] | 95 to 100
COC(=O)c1nc(-c2ccc(OC(C)(C)C)cc2Cl)ccc1Cl [F36, Methyl 6-(4-(tert-butoxy)-2-chlorophenyl)-3-chloropicolinate] | 0 to 29

same assay, conditions: post-emergence, 336 h, CIRAR: canada thistle (Cirsium arvense), 140 g ai/ha, 14 days after application, read-out: Visual Growth Reduction (%) 14 Days After Application, CIRAR

Structure (SMILES) | pest or weed control at 140 g/ha [%]
COC(=O)c1nc(-c2ccc(C(F)(F)F)cc2Cl)ccc1C [F53, Methyl 6-(2-chloro-4-(trifluoromethyl)phenyl)-3-methylpicolinate] | 95 to 100
COC(=O)c1nc(-c2ccc(OC(C)(C)C)cc2Cl)ccc1Cl [F36, Methyl 6-(4-(tert-butoxy)-2-chlorophenyl)-3-chloropicolinate] | 0 to 29

same assay, conditions: post-emergence, 336 h, CYPES: yellow nutsedge (Cyperus esculentus), 140 g ai/ha, 14 days after application, read-out: Visual Growth Reduction (%) 14 Days After Application, CYPES

Structure (SMILES) | pest or weed control at 140 g/ha [%]
COC(=O)c1nc(-c2ccc(C(F)(F)F)cc2Cl)ccc1C [F53, Methyl 6-(2-chloro-4-(trifluoromethyl)phenyl)-3-methylpicolinate] | 0 to 29
COC(=O)c1nc(-c2ccc(OC(C)(C)C)cc2Cl)ccc1Cl [F36, Methyl 6-(4-(tert-butoxy)-2-chlorophenyl)-3-chloropicolinate] | 0 to 29

same assay, conditions: post-emergence, 336 h, DIGSA: crabgrass (Digitaria sanguinalis), 140 g ai/ha, 14 days after application, read-out: Visual Growth Reduction (%) 14 Days After Application, DIGSA

Structure (SMILES) | pest or weed control at 140 g/ha [%]
COC(=O)c1nc(-c2ccc(C(F)(F)F)cc2Cl)ccc1C [F53, Methyl 6-(2-chloro-4-(trifluoromethyl)phenyl)-3-methylpicolinate] | 95 to 100
COC(=O)c1nc(-c2ccc(OC(C)(C)C)cc2Cl)ccc1Cl [F36, Methyl 6-(4-(tert-butoxy)-2-chlorophenyl)-3-chloropicolinate] | 0 to 29

same assay, conditions: post-emergence, 336 h, ECHCG: barnyardgrass (Echinochloa crus-galli), 140 g ai/ha, 14 days after application, read-out: Visual Growth Reduction (%) 14 Days After Application, ECHCG

Structure (SMILES) | pest or weed control at 140 g/ha [%]
COC(=O)c1nc(-c2ccc(C(F)(F)F)cc2Cl)ccc1C [F53, Methyl 6-(2-chloro-4-(trifluoromethyl)phenyl)-3-methylpicolinate] | 0 to 29
COC(=O)c1nc(-c2ccc(OC(C)(C)C)cc2Cl)ccc1Cl [F36, Methyl 6-(4-(tert-butoxy)-2-chlorophenyl)-3-chloropicolinate] | 0 to 29

same assay, conditions: post-emergence, 336 h, IPOHE: ivy-leaf morning glory (Ipomoea hederacea), 140 g ai/ha, 14 days after application, read-out: Visual Growth Reduction (%) 14 Days After Application, IPOHE

Structure (SMILES) | pest or weed control at 140 g/ha [%]
COC(=O)c1nc(-c2ccc(OC(C)(C)C)cc2Cl)ccc1Cl [F36, Methyl 6-(4-(tert-butoxy)-2-chlorophenyl)-3-chloropicolinate] | 0 to 29

same assay, conditions: post-emergence, 336 h, KCHSC: kochia (Bassia scoparia), 140 g ai/ha, 14 days after application, read-out: Visual Growth Reduction (%) 14 Days After Application, KCHSC

Structure (SMILES) | pest or weed control at 140 g/ha [%]
COC(=O)c1nc(-c2ccc(C(F)(F)F)cc2Cl)ccc1C [F53, Methyl 6-(2-chloro-4-(trifluoromethyl)phenyl)-3-methylpicolinate] | 0 to 29
COC(=O)c1nc(-c2ccc(OC(C)(C)C)cc2Cl)ccc1Cl [F36, Methyl 6-(4-(tert-butoxy)-2-chlorophenyl)-3-chloropicolinate] | 0 to 29

same assay, conditions: post-emergence, 336 h, ORYSA: rice (Oryza sativa), 140 g ai/ha, 14 days after application, read-out: Visual Growth Reduction (%) 14 Days After Application, ORYSA

Structure (SMILES) | pest or weed control at 140 g/ha [%]
COC(=O)c1nc(-c2ccc(C(F)(F)F)cc2Cl)ccc1C [F53, Methyl 6-(2-chloro-4-(trifluoromethyl)phenyl)-3-methylpicolinate] | 0 to 29
COC(=O)c1nc(-c2ccc(OC(C)(C)C)cc2Cl)ccc1Cl [F36, Methyl 6-(4-(tert-butoxy)-2-chlorophenyl)-3-chloropicolinate] | 0 to 29

same assay, conditions: post-emergence, 336 h, SETFA: giant foxtail (Setaria faberi), 140 g ai/ha, 14 days after application, read-out: Visual Growth Reduction (%) 14 Days After Application, SETFA

Structure (SMILES) | pest or weed control at 140 g/ha [%]
COC(=O)c1nc(-c2ccc(C(F)(F)F)cc2Cl)ccc1C [F53, Methyl 6-(2-chloro-4-(trifluoromethyl)phenyl)-3-methylpicolinate] | 0 to 29
COC(=O)c1nc(-c2ccc(OC(C)(C)C)cc2Cl)ccc1Cl [F36, Methyl 6-(4-(tert-butoxy)-2-chlorophenyl)-3-chloropicolinate] | 0 to 29

same assay, conditions: post-emergence, 336 h, SORVU: grain sorghum (Sorghum vulgare), 140 g ai/ha, 14 days after application, read-out: Visual Growth Reduction (%) 14 Days After Application, SORVU

Structure (SMILES) | pest or weed control at 140 g/ha [%]
COC(=O)c1nc(-c2ccc(C(F)(F)F)cc2Cl)ccc1C [F53, Methyl 6-(2-chloro-4-(trifluoromethyl)phenyl)-3-methylpicolinate] | 0 to 29
COC(=O)c1nc(-c2ccc(OC(C)(C)C)cc2Cl)ccc1Cl [F36, Methyl 6-(4-(tert-butoxy)-2-chlorophenyl)-3-chloropicolinate] | 0 to 29

same assay, conditions: post-emergence, 336 h, STEME: common chickweed (Stellaria media), 140 g ai/ha, 14 days after application, read-out: Visual Growth Reduction (%) 14 Days After Application, STEME

Structure (SMILES) | pest or weed control at 140 g/ha [%]
COC(=O)c1nc(-c2ccc(C(F)(F)F)cc2Cl)ccc1C [F53, Methyl 6-(2-chloro-4-(trifluoromethyl)phenyl)-3-methylpicolinate] | 0 to 29
COC(=O)c1nc(-c2ccc(OC(C)(C)C)cc2Cl)ccc1Cl [F36, Methyl 6-(4-(tert-butoxy)-2-chlorophenyl)-3-chloropicolinate] | 0 to 29

same assay, conditions: post-emergence, 336 h, TRZAS: wheat, spring (Triticum aestivum), 140 g ai/ha, 14 days after application, read-out: Visual Growth Reduction (%) 14 Days After Application, TRZAS

Structure (SMILES) | pest or weed control at 140 g/ha [%]
COC(=O)c1nc(-c2ccc(C(F)(F)F)cc2Cl)ccc1C [F53, Methyl 6-(2-chloro-4-(trifluoromethyl)phenyl)-3-methylpicolinate] | 0 to 29
COC(=O)c1nc(-c2ccc(OC(C)(C)C)cc2Cl)ccc1Cl [F36, Methyl 6-(4-(tert-butoxy)-2-chlorophenyl)-3-chloropicolinate] | 0 to 29
